Like-named read-outs stand apart in the source and are kept apart here.
Legend:
PPARα = biological target: T1, PPARα (Homo sapiens, UniProt Q07869); assay: PPARα transactivation activity (GAL4-hPPARα LBD luciferase reporter in CV-1 cells); type: cell-based; settings: for Relative activity for PPAR transactivation, α: compounds at 10^-7 M; for Relative PPARα transactivation activity (α): test compound 10^-6 M, 40 hours, CV-1 cells, 100% = 10^-4 M, 0% = DMSO (0.1%)
T1 construct: Receptor expression plasmid (GAL4-hPPARα, LBD GAL4-hPPARγ LBD, GAL4-hPPARδ LBD); expressed in transfected cells; host or cells: CV-1 cells
T1 sequence (Q07869 239-466 limits assumed): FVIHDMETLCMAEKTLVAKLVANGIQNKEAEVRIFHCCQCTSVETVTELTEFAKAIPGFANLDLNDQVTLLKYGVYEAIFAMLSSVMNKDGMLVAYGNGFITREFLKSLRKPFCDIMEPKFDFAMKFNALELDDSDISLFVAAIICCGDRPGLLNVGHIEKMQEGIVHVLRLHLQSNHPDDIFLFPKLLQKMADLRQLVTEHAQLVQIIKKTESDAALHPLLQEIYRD
Method: (§1) (1) Measurement of PPARα, γ, δ transactivation activity
PPARα, γ, δ transactivation activity of each compound [Examples 1-4] was measured in the manner described below.
(§2) CV-1 cells were obtained from Tohoku University Aging Medical Laboratory, Medical Cell Collection Center. All test compounds were dissolved in dimethylsulfoxide (DMSO). Final concentration of DMSO was 0.1%.
Receptor expression plasmid (GAL4-hPPARα, LBD GAL4-hPPARγ LBD, GAL4-hPPARδ LBD), Reporter plasmid (UASx4-TK-LUC), and β-galactosidase expression plasmid (βGAL) similar to Kliewer, S. A., et al., ((1992) Nature, 358:771-774) were used.
CV-1 cells were seeded in 24 well culture plates at 2×10^5 cells per well, and cultured for 24 hours OPTI-MEM I Reduced Serum Medium (Life Technologies, 500 μL/well) containing 4%-fetal bovine serum (FBS). After washing with OPTI-MEM, transfection mixture (250 μL/well) containing 0.03 μg of GAL4-hPPARδ LBD, 0.25 μg of UASx4-TK-LUC, 0.35 μg of βGAL, and 2 μL of lipofection reagent, DMRIE-C (Life Technologies) were added. The cells were incubated for 5 hours at 37° C.
The cells were washed and incubated for 40 hours in the presence of the test compound (final concentration was 10^−6M).
(§3) The culture medium was removed and the cells were washed with PBS twice. A solubilizing buffer (100 μL/well) containing 25 mM Tris-PO4 (pH 7.8), 15%v/v glycerol, 2% CHAPS, 1% Lecithin, 1% BSA, 4 mM EGTA (pH 8.0), 8 mM MgCl2, 1 mM DTT was added. After the incubation for 10 minutes at room temperature, a portion (20 μL) of the solution was transferred into a 96-well plate. Subsequently, 100 μL of luciferase substrate solution (Piccagene: available from Nippon Gene Co., Ltd.) was added, and a luminous intensity per one second (luciferase activity) was measured using a microluminoreader (Type MLR-100, Corona Electrics Co., Ltd.). Each luciferase activity was corrected by the transfection efficiency which was calculated from β-galactosidase activity. The assay method of β-galactosidase activity was as follows: A portion (50 μL) of the solubilized sample was transferred into another 96-well plate; 100 μL of ONPG (2-nitrophenyl-β-galactopyranoside) solution was added and incubated for 5 minutes at room temperature. 50 μL of a reaction stopping solution (1M sodium carbonate solution) was added. Then the absorbance at 414 nm was measured.
A relative PPAR activity was calculated as follows: 0% (luciferase activity of cells treated with DMSO (0.1%) alone), 100% (luciferase activity of cells treated with a control (PPARα: 10^−4 M […], PPARγ: 10^−5 M Rosiglitazone, PPARδ: 10^−4 M L-165041)).
PPAR transactivation activities of the compounds of Examples 5-10 were assayed in the same manner as described in Example 11.
Relative activities for PPAR transactivation were shown.
Each value represents as % of control. Cells were cultured in the presence of compounds at 10^−7 M except that PPARδ of Examples 5, 6 and 7 were assayed at 10^−8 M.

PPARγ = biological target: T2, PPARγ (Homo sapiens, UniProt P37231); assay: PPARγ transactivation activity (GAL4-hPPARγ LBD luciferase reporter in CV-1 cells); type: cell-based; settings: for Relative PPARγ transactivation activity (γ): test compound 10^-6 M, 40 hours, CV-1 cells, 100% = 10^-5 M Rosiglitazone, 0% = DMSO (0.1%)
T2 construct: Receptor expression plasmid (GAL4-hPPARα, LBD GAL4-hPPARγ LBD, GAL4-hPPARδ LBD); expressed in transfected cells; host or cells: CV-1 cells
T2 sequence (P37231 238-503 limits assumed): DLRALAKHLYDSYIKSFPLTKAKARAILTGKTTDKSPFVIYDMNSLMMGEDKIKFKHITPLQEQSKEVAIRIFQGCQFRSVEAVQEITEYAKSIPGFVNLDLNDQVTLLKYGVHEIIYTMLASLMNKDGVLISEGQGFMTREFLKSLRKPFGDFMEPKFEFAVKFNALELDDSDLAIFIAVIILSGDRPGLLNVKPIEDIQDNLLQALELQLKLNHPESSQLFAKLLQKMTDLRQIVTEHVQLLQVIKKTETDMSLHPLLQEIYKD
Method: as §1, §2
(§4) CV-1 cells were seeded in 24 well culture plates at 2×10^5 cells per well, and cultured for 24 hours OPTI-MEM I Reduced Serum Medium (Life Technologies, 500 μL/well) containing 4%-fetal bovine serum (FBS). After washing with OPTI-MEM, transfection mixture (250 μL/well) containing 0.03 μg of GAL4-hPPARδ LBD, 0.25 μg of UASx4-TK-LUC, 0.35 μg of βGAL, and 2 μL of lipofection reagent, DMRIE-C (Life Technologies) were added. The cells were incubated for 5 hours at 37° C. […]
as §3

PPARδ = biological target: T3, PPARδ (Homo sapiens, UniProt Q03181); assay: PPARδ transactivation activity (GAL4-hPPARδ LBD luciferase reporter in CV-1 cells); type: cell-based; settings: for Relative PPARδ transactivation activity (δ) / PPARδ transactivation activity (statement in words on Table 25): test compound 10^-6 M, CV-1 cells; for Relative PPARδ transactivation activity (δ): 40 hours, 100% = 10^-4 M L-165041, 0% = DMSO (0.1%); for PPARδ transactivation activity (statement in words on Table 25): control 10^-4 M L-165041 = 100%
T3 construct: transfection mixture (250 μL/well) containing 0.03 μg of GAL4-hPPARδ LBD; expressed in transfected cells; host or cells: CV-1 cells
T3 sequence (Q03181 211-439 limits assumed): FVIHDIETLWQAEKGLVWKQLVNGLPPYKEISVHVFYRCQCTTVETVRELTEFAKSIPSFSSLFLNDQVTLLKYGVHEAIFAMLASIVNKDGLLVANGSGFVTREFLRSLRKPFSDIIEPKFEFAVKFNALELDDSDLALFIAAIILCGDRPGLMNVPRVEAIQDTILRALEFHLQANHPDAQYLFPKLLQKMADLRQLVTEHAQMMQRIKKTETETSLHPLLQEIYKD
Method: PPARδ transactivation activity of the compound of the invention was measured in the manner described below.
A receptor expression plasmid (GAL4-hPPARδ LBD), a reporter plasmid (UASx4-TK-LUC) and a β-galactosidase (β-GAL) expression plasmid were transfected into CV-1 cells by using DMRIE-C reagent. Subsequently, the cells were incubated for 40 hours in the presence of a compound of the invention, and then the luciferase and β-GAL activities of the cell lysate were assayed.
as §1, §2, §4, §3

db/db mice = tested on: db/db mice
Method: HDL cholesterol elevating effect was measured by using db/db mice, which are hereditary obesity mice. The db/db mice (10 weeks old) were divided into groups based on serum HDL cholesterol levels. […] Mice of the control group (to which no agent was administered) were orally given 1% methyl cellulose solution. After 16 hours from the final administration, blood sample was collected, and serum HDL cholesterol level was measured. HDL cholesterol was separated by electrophoresis on agarose gels (Chol/Trig Combo, Helena Laboratories). Serum total cholesterol levels were measured enzymaticallly using a kit (Pure Auto, Daiichi Chemicals) by an automatic analyzer (7060E type, Hitachi Ltd.). HDL cholesterol levels were calculated from total cholesterol levels and HDL cholesterol/total cholesterol ratios.
Each value represents as % of the control group.

[1] = compounds at 10^-8 M (Examples 5, 6 and 7)

SMILES	Relative activity for PPAR transactivation, α (PPARα)	Relative activity for PPAR transactivation, γ (PPARγ; compounds at 10^-7 M)	Relative activity for PPAR transactivation, δ (PPARδ; [1])	Relative activity for PPAR transactivation, δ (PPARδ; compounds at 10^-7 M)	Relative PPARα transactivation activity (α) (PPARα) [%]	Relative PPARγ transactivation activity (γ) (PPARγ) [%]	Relative PPARδ transactivation activity (δ) (PPARδ) [%]	other results
Cc1cc2c(CCc3sc(-c4ccc(C(F)(F)F)cc4)nc3C(C)C)noc2cc1OCC(=O)O [Example 5, [3-[2-[4-Isopropyl-2-(4-trifluoromethyl)phenyl-5-thiazolyl]-ethyl]-5-methyl-1,2-benzisoxazol-6-yl]oxyacetic acid]	0 % of control	0 % of control	75 % of control					
Cc1cc2c(CCc3nc(-c4ccc(Cl)cc4Cl)oc3C(C)C)noc2cc1OCC(=O)O [Example 9, (3-[2-[2-(2,4-Dichlorophenyl)-5-isopropyl-4-oxazolyl]ethyl]-5-methyl-1,2-benzisoxazol-6-yl]oxyacetic acid]	0 % of control	2 % of control		86 % of control				
Cc1cc2c(CCc3sc(-c4ccc(C(F)(F)F)cc4)nc3C(C)C)noc2cc1SCC(=O)O [Example 7, [3-[2-[4-Isopropyl-2-(4-trifluoromethyl)phenyl-5-thiazolyl]ethyl]-5-methyl-1,2-benzisoxazol-6-yl]thioacetic acid]	0 % of control	0 % of control	63 % of control					
Cc1cc2c(CCc3sc(-c4ccc(C(F)(F)F)cc4)nc3C(C)C)noc2cc1OC(C)(C)C(=O)OCCN1CCCCC1.Cl [Example 10, 2-[[3-[2-[4-Isopropyl-2-(4-trifluoromethyl)phenyl-5-thiazolyl]ethyl]-5-methyl-1,2-benzisoxazol-6-yl]oxy]-2-methylpropionic acid 2-piperidin-1-yl ethyl ester hydrochloride]	3 % of control	0 % of control		75 % of control				
C=CCc1c(OC(C)(C)C(=O)O)ccc2c(CCc3sc(-c4ccc(C(F)(F)F)cc4)nc3C(C)C)noc12 [Example 4, 2-[[7-Allyl-3-[2-[2-[(4-trifluoromethyl)phenyl]-4-isopropyl-5-thiazolyl]ethyl]-1,2-benzisoxazol-6-yl]oxy]-2-methylpropionic acid]					85.0	9.5	59.9	
C=CCc1c(OCC(=O)O)ccc2c(CCc3nc(-c4ccc(Cl)cc4Cl)oc3C(C)C)noc12 [Example 1, [[7-Allyl-3-[2-[2-(2,4-dichlorophenyl)-5-isopropyl-4-oxazolyl]ethyl]-1,2-benzisoxazol-6-yl]oxy]acetic acid]					0.1	9.4	76.9	PPARδ transactivation activity (statement in words on Table 25) (PPARδ): selective PPARδ transactivation activity
Cc1cc2c(CCc3sc(-c4ccc(C(F)(F)F)cc4)nc3C(C)C)noc2cc1OC(C)(C)C(=O)O [Example 6, 2-[[3-[2-[4-Isopropyl-2-(4-trifluoromethyl)phenyl-5-thiazolyl]ethyl]-5-methyl-1,2-benzisoxazol-6-yl]oxy]-2-methylpropionic acid]	0 % of control		54 % of control					Relative activity for PPAR transactivation, γ (PPARγ): 0 % of control; Ratio of increasing HDL cholesterol (db/db mice; 10 mg/kg b.i.d. orally for one week, serum 16 hours after final administration): 164 % to control; HDL cholesterol elevating effect (statement in words on Table 27) (db/db mice; oral, twice daily for one week, serum HDL cholesterol 16 hours after final administration): potent HDL cholesterol elevating effect
Cc1cc2c(CCc3sc(-c4ccc(C(F)(F)F)cc4)nc3C(C)C)noc2cc1NCC(=O)O [Example 8, [3-[2-[4-Isopropyl-2-(4-trifluoromethyl)phenyl-5-thiazolyl]ethyl]-5-methyl-1,2-benzisoxazol-6-yl]aminoacetic acid]	0 % of control	0 % of control		61 % of control				
C=CCc1c(OC(C)(C)C(=O)O)ccc2c(CCc3nc(-c4ccc(Cl)cc4Cl)oc3C(C)C)noc12 [Example 2, 2-[[7-Allyl-3-[2-[2-(2,4-dichlorophenyl)-5-isopropyl-4-oxazolyl]ethyl]-1,2-benzisoxazol-6-yl]oxy]-2-methylpropionic acid]					8.0	3.2	67.8	PPARδ transactivation activity (statement in words on Table 25) (PPARδ): selective PPARδ transactivation activity

— patent US7402597B2, “Activator of peroxisome proliferator-activated receptor δ” (Nippon Chemiphar Co., Ltd, priority 2001, dated 2008)
